Results as given in the supplement of paper PMC10307832.

Assays:
Assay in all cases: relative viability (nuclei count vs DMSO), 5 days (fraction); higher = more cells survive
[1] = compound: CS(=O)(=O)N1CCN(Cc2cc3nc(-c4cccc5[nH]ncc45)nc(N4CCOCC4)c3s2)CC1 [Pictilisib]
In short: (§1)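 Viability here means nuclei in treated wells divided by nuclei in vehicle wells, reported as the median across plates. Only plates with control CV below 25% and at least one doubling passed. Lung cancer cell lines in 1536-well plates were exposed to five √10-spaced library-drug doses for 5 days and counted from 4× Hoechst images in MetaXpress.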

[2] = compound: NC1(c2ccc(-c3nc4ccn5c(=O)[nH]nc5c4cc3-c3ccccc3)cc2)CCC1 [MK-2206]
In short: as §1

[3] = compound: NC1(c2ccc(-c3nc4ccn5c(=O)[nH]nc5c4cc3-c3ccccc3)cc2)CCC1 [MK-2206] + CC(=O)c1c(C)c2cnc(Nc3ccc(N4CCNCC4)cn3)nc2n(C2CCCC2)c1=O [Palbociclib] (partner 0.5 µM)
In short: (§2)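 After 5 days of treatment, lung cancer cells in 1536-well plates were fixed and stained in a single step (final 0.05% Triton X-100, 1% formaldehyde, 1 ug/ml Hoechst) and their nuclei counted on 4× images. Treatment had been applied by pin tool the day after seeding as one drug alone or as a fixed anchor-drug dose with five library-drug doses (not always all listed) in √10 steps. Relative viability is the nuclei count of treated wells divided by that of vehicle wells, and values are medians of duplicate plates.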

[4] = compound: NC1(c2ccc(-c3nc4ccn5c(=O)[nH]nc5c4cc3-c3ccccc3)cc2)CCC1 [MK-2206] + Nc1ncn([C@H]2C[C@H](O)[C@@H](CO)O2)c(=O)n1 [Decitabine] (partner 2 µM)
In short: as §2

UMC-11
relative viability ([1]; 0.02 µM): 0.989 | relative viability ([1]; 0.06325 µM): 1.14 | relative viability ([1]; 0.6325 µM): 1.07 | relative viability ([1]; 1 µM, anchor plate): 0.846 | relative viability ([1]; 2 µM): 0.937 | relative viability ([2]; 0.01 µM): 0.94 | relative viability ([2]; 0.03162 µM): 1.02 | relative viability ([2]; 0.3162 µM): 1.07 | relative viability ([2]; 1 µM): 0.937 | relative viability ([3]; first compound 0.01 µM): 0.318 | relative viability ([3]; first compound 0.03162 µM): 0.359 | relative viability ([3]; first compound 0.3162 µM): 0.288 | relative viability ([3]; first compound 1 µM): 0.317 | relative viability ([4]; first compound 0.01 µM): 0.669 | relative viability ([4]; first compound 0.03162 µM): 0.643 | relative viability ([4]; first compound 0.3162 µM): 0.569 | relative viability ([4]; first compound 1 µM): 0.716
